Data from patent US12503444B2, “Compound containing benzene ring and application thereof” (WUHAN LL SCIENCE AND TECHNOLOGY DEVELOPMENT CO., LTD., priority 2019, dated 2025).
Like-named read-outs stand apart in the source and are kept apart here.

What was measured:
[1] = system: Male Dunkin Hartley guinea pigs; experiment: Citric acid only cough model in guinea pigs; type: in vivo; conditions: guinea pig; for Cough inhibition rate Vs vehicle (%) / Cough latency / Mean number of coughs / Cough inhibition rate Vs baseline (%): 17.5% citric acid; for Cough inhibition rate Vs baseline (%): before vs after administration
Description: Male Dunkin Hartley guinea pigs (300-350 g) were placed in an animal atomization box, and then the door of the atomization box was closed while the ultrasonic atomizer (Guangdong Yuehua) was turned on. 17.5% citric acid gas was introduced into the atomization box at a maximum atomization rate (about 2 mL/min) for 20 s, and coughs of the animals within 10 min were continuously observed from the time of the start of atomization. During the 10-min observation, coughs of the animals needed to be counted manually, and the number of coughs were judged according to cough postures of the guinea pigs, such as abdominal twitching, mouth opening, and head inclining downward abruptly. The number of coughs during the first 5 min and that during 10 min were recorded, and the cough latency of the guinea pigs, namely the time from the initiation of citric acid induction to the appearance of the 1st cough, was also recorded.
Cough inhibition rate Vs vehicle represents the percentage of reduction
[formula] in the number of coughs in the administration group compared to the vehicle group upon citric acid challenge; Cough inhibition rate Vs baseline represents the percentage of reduction
[formula] in the number of coughs in the administration group before and after administration.

[2] = In vitro metabolic stability, liver microsome incubation (human); type: in vitro ADME; conditions: 1 mg/mL liver microsome protein, 37° C.; for half-life: human, liver microsomes, read-out: T1/2 in human liver microsome min
Description: (§1) The in vitro metabolic stability of the compounds disclosed herein was determined through incubation of liver microsomes of various species. A proper amount of test compound was added into a liver microsome reaction system (1 mg/mL liver microsome protein, 25 U/mL glucose-6 phosphate dehydrogenase, 1 mM NADP, 6 mM D-glucose 6-phosphate and 5 mM MgCl2), and then the mixture was incubated in a water bath kettle at 37° C. to start the reaction. At each time point, 100 μL of the reaction system was added into a centrifuge tube containing 400 μL of internal standard working solution (containing a 200 ng/mL solution of dexamethasone, diclofenac, tolbutamide and labetalol in acetonitrile) precooled at 0° C. so as to stop the reaction, and the mixture was then centrifuged at 10,000 g for 10 min at 4° C. The supernatant was collected for LC-MS assay so as to obtain the values of in vitro metabolic half-life of the test compounds in liver microsomes of various species.

[3] = In vitro metabolic stability, liver microsome incubation (guinea pig); type: in vitro ADME; conditions: 1 mg/mL liver microsome protein, 37° C.; for half-life: guinea pig, liver microsomes, read-out: T1/2 in guinea pig liver microsome min
Description: as §1

[4] = target: T1, hP2X4 (human purinergic P2X receptor subtype 4) (Homo sapiens, UniProt Q99571); experiment: FLIPR assay of intracellular calcium increase induced by activation of hP2X4 expressed in HEK293 cells (agonist BZ-ATP 2.5 μM); type: cell-based; conditions: HEK293 cells stably expressing hP2X4, FLIPR, read-out: P2X4 IC50
T1 sequence (Q99571 1-404 isoform Q99571-2): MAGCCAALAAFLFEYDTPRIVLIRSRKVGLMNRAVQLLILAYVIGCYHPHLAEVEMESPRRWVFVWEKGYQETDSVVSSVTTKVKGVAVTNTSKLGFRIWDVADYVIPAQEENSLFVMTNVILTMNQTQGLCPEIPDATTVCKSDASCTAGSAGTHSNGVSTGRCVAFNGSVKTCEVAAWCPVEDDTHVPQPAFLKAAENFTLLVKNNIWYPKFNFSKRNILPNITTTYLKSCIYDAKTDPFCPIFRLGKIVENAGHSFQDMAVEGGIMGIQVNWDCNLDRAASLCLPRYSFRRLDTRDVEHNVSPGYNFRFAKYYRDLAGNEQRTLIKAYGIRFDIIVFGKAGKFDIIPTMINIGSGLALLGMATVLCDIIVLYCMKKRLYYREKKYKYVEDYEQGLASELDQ
How it was run: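 Inhibition of the calcium signal was measured by FLIPR after a 2.5 μM final BZ-ATP challenge, with readings every second over 2 min. Stable hP2X4-HEK293 cells were dye-loaded (Calcium 6, 37° C, 1.5 h) and equilibrated with test compound for 30 min at room temperature beforehand.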

[5] = In vitro metabolic stability, liver microsome incubation (rat); type: in vitro ADME; conditions: 1 mg/mL liver microsome protein, 37° C.; for half-life: rat, liver microsomes, read-out: T1/2 in rat liver microsome min
Description: as §1

[6] = In vitro cytotoxicity assay in HepG2 cells, CCK-8 method; conditions: human
Description: (§2) In vitro cytotoxicity assay for the compounds disclosed herein was performed in HepG2 cells using the CCK-8 method. HepG2 cells (Beina Bio) in the logarithmic growth phase were collected, the concentration of cell suspension was adjusted, and then the cells were plated on a 96-well cell culture plate at 50,000 cells/well. The cells were then incubated overnight in a cell incubator (5%/humidity, 37° C.), and after 80-90% cell confluence was achieved, test compounds or vehicle (DMSO) at various concentration gradients were added after medium change. The resulting mixture was incubated in the cell incubator (5% humidity, 37° C.) for 48 h. After the treatment, the medium in the plate was discarded. The plate was washed twice with PBS, added with CCK-8 working solution (Beyotime) at 100 μL per well, and then incubated at 37° C. for 1.5 h away from the light. Absorbance at OD450 nm was measured for each well on a microplate reader, and CC50 value of each compound was analyzed and calculated.

HepG2 cells [7] = system: HepG2 cells
Description: as §2

HepG2 cells [8] = experiment: In vitro cytotoxicity assay in HepG2 cells, CCK-8 method; conditions: read-out: HepG2 CC50, 48 h, CCK-8
Description: as §2

[9] = 20 mg/kg group, before administration (baseline)
[10] = 60 mg/kg group, before administration (baseline)

NS(=O)(=O)c1cc(NC(=O)Cc2ccccc2Cl)cc2nn(C(F)F)cc12 [Compound 1, 2-(2-chlorophenyl)-N-(2-(difluoromethyl)-4-sulfamoyl-2H-indazol-6-yl)acetamide]
Effect on number of coughs and cough latency (in words) ([1]; 20 mg/kg and 60 mg/kg, compared with vehicle group or before administration): reduce the number of coughs and prolong the cough latency in a dose-dependent manner
Effect on number of coughs and cough latency (in words) ([1]; 60 mg/kg, no significant difference from dextromethorphan at the same dosage): significant improvement effect
Cough inhibition rate Vs vehicle (%) ([1]; 20 mg/kg): 20.59%
Cough latency [1, 9]: 94.29 s
Mean number of coughs [1, 9]: 18.57
Cough latency ([1]; 20 mg/kg, after administration): 214.29 s
Mean number of coughs ([1]; 20 mg/kg, after administration): 15.29
Cough inhibition rate Vs baseline (%) ([1]; 20 mg/kg): 17.69%
Cough inhibition rate Vs vehicle (%) ([1]; 60 mg/kg): 46.75%
Cough latency [1, 10]: 84.88 s
Mean number of coughs [1, 10]: 18.50
Cough latency ([1]; 60 mg/kg, after administration): 221.75 s
Mean number of coughs ([1]; 60 mg/kg, after administration): 10.25
Cough inhibition rate Vs baseline (%) ([1]; 60 mg/kg): 44.59%
half-life [2]: 11.5 h
half-life [3]: 2.58 h
IC50 ([4]; numeric values): 29.1 nM
half-life [5]: 6.03 h
CC50 at 48 h [6]: > 200000 nM

CCCn1ncc2c(S(N)(=O)=O)cc(NC(=O)Cc3ccccc3Cl)cc21 [Compound 5-B, 2-(2-chlorophenyl)-N-(1-propyl-4-sulfonylamino-1H-indazol-6-yl)acetamide]
T1/2 in human liver microsome min [2]: 1.094 h
CC50 (HepG2 cells [7]): > 200000 nM
IC50 ([4]; numeric values): 2.2 nM

CC(C)Cn1ncc2c(S(N)(=O)=O)cc(NC(=O)Cc3ccccc3Cl)cc21 [Compound 7-B, 2-(2-chlorophenyl)-N-(1-isobutyl-4-sulfamoyl-2H-indazol-6-yl)acetamide]
T1/2 in human liver microsome min [2]: 0.5413 h
CC50 (HepG2 cells [7]): 150000 nM
IC50 ([4]; numeric values): 2.33 nM

CC(C)CCn1ncc2c(S(N)(=O)=O)cc(NC(=O)Cc3ccccc3Cl)cc21 [Compound 8-B, 2-(2-chlorophenyl)-N-(1-isopentyl-4-sulfamoyl-2H-indazol-6-yl)acetamide]
T1/2 in human liver microsome min [2]: 0.4488 h
CC50 (HepG2 cells [7]): > 200000 nM
IC50 ([4]; numeric values): 0.38 nM

N#Cc1ccc(Cn2cc3c(S(N)(=O)=O)cc(NC(=O)Cc4ccccc4Cl)cc3n2)cc1 [Compound 91, 2-(2-chlorophenyl)-N-(2-(4-cyanobenzyl)-4-sulfamoyl-2H-indazol-6-yl)acetamide]
half-life [2]: 3.23 h
half-life [3]: 0.809 h
IC50 ([4]; class symbols): ≤ 10 nM
half-life [5]: 1.84 h
CC50 at 48 h [6]: > 200000 nM

COc1ccc(CN(Cc2ccc(OC)cc2)S(=O)(=O)c2cc(NC(=O)Cc3ccccc3Cl)cc3c2cnn3Cc2ccc(C#N)cc2)cc1 [Compound 91A, N-(4-(N,N-bis(4-methoxybenzyl)sulfamoyl)-1-(4-cyanobenzyl)-1H-indazol-6-yl)-2-(2-chlorophenyl)acetamide]
T1/2 in human liver microsome min [2]: 1.6827 h
T1/2 in guinea pig liver microsome min [3]: 1.424 h
IC50 ([4]; class symbols): ≤ 10 nM
T1/2 in rat liver microsome min [5]: 2.0857 h
CC50 (HepG2 cells [8]): > 200000 nM
